# What was measured:
# COX-2 = target: T1, COX-2 (Homo sapiens, UniProt P35354); experiment: COX-2 fluorescence assay with CoxFluor (fluorimeter / plate reader); format: biochemical; design: made in house
# T1 sequence (P35354 18-604): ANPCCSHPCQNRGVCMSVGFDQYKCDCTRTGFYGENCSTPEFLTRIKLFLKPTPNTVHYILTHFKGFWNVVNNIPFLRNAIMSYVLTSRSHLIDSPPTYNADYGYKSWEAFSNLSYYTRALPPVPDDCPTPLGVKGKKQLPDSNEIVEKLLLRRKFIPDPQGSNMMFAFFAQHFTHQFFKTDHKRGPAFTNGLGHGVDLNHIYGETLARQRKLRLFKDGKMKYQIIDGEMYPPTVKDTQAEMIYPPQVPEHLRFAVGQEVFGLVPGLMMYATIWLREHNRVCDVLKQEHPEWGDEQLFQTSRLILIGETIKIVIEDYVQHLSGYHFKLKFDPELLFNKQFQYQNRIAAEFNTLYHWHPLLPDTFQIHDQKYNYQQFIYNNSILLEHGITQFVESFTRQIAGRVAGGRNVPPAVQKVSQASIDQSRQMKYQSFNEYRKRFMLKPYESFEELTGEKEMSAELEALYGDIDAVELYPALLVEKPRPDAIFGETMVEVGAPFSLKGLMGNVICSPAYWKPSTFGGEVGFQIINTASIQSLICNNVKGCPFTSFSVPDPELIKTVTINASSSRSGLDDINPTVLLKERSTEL
# Experimental: Fluorimeter Fluorescence Assay. The fluorescence assays were performed in microquartz cuvettes or submicroquartz cuvettes with a maximum volume of 600 μL. Reactions were monitored at room temperature using 540 nm excitation and emission was collected from 550-700 nm with a slit width of 1.25 mm. Total volumes of the reaction mixtures were maintained at 570 μL. […] Experiments in the presence of reduced GSH were conducted according to the same procedure, but GSH (30 μL, 19 mM in 100 mM Tris-HCl, pH 8.0) was added before the addition of CoxFluor for a final concentration of 1 mM. Assays performed in submicroquartz cuvettes were performed maintaining the same ratios, but with a final volume of 142.5 μL.
# Plate Reader Fluorescence Assay. The fluorescence assays were performed at room temperature using 540 nm excitation and 590 nm emission. Total volume of the reaction mixture was maintained at 190 μL. […] Inhibition assays were performed according to the same procedure, but COX-2 was preincubated with hemin and inhibitor for 0.5 h at 0° C. before initiation with CoxFluor. Relative fluorescence enhancement is calculated by comparing to a buffer control with 10 μM CoxFluor.
# [1] = test system: COX-2 activity in RAW 264.7 macrophage lysates; experiment: RAW 264.7 macrophage lysate COX-2 activity assay; format: cell-based, mouse; conditions: NEM 1 mM, CoxFluor readout
# [2] = test system: horseradish peroxidase, bovine catalase, porcine esterase, human CYP2J2 (with cytochrome reductase), rat liver microsomes; experiment: Enzyme selectivity panel (off-target activation); format: biochemical; conditions: 10-fold excess protein (1.01 U vs 0.101 U COX-2), CoxFluor 10 μM
# Experimental: Enzyme Selectivity. Enzyme activity was defined as the amount substrate (μmol) consumed during one minute by one milligram of enzyme in 100 mM Tris-HCl at pH 8.0 under saturating conditions. Enzyme concentrations were measured using the BCA assay (Thermo Fisher Scientific) according to the published protocol with bovine serum albumin for the standard curve. COX-1 and COX-2 cyclooxygenase activities were measured using Strathkelvin oxygen electrode with arachidonic acid (200 μM). The oxygen electrode was calibrated using 1% sodium sulfite for 0% oxygen and atmosphere equilibrated 100 mM Tris-HCl at pH 8.0 for 100% oxygen. The reaction was monitored at 37° C. in a glass chamber with a total reaction volume of 1 mL. […]
# Porcine esterase activity was measured spectroscopically at 405 nm using p-nitrophenyl acetate (1.5 mM) as the substrate. Bovine catalase activity was measured using a discontinuous Amplex® Red-horseradish peroxidase assay to quantify the amount of hydrogen peroxide (initially 31.25 μM) remaining after 0.5 h incubation with excitation at 540 nm and emission at 590 nm. CYP2J2 activity was measured spectroscopically at 340 nm using […] (3-fold excess), NADPH (1 mM), and arachidonic acid (70 μM) as the substrate. […]
# Selectivity was assessed using 10-fold excess protein (350 μg/mL) and the solution was brought to a pH of 8.0 after 4 h with 0.5 M aq. […]
# [3] = CoxFluor, Ctrl-CoxFluor & Resorufin stability assays; format: physicochemical; conditions: 8 hours at room temperature or 37° C., with or without ambient light
# Experimental: CoxFluor, Ctrl-CoxFluor & Resorufin Stability Assays. Stability assays were performed for a 10 μM solution of each compound in a series of buffers/solvents (100 mM Tris-HCl at pH 8.0, DMEM with 10% FBS, DMEM without serum and DMSO). Stability was assessed at room temperature or at 37° C. and in the presence or absence of ambient light. Fluorescence was measured using the plate reader with excitation at 540 nm and emission from 560-700 nm and the relative turn-on was determined by the change of fluorescence intensity at 590 nm.
smiles,measurement,setting,value
CCCCC/C=C\C/C=C\C/C=C\C/C=C\CCCC(=O)N1c2ccc(O)cc2Oc2cc(O)ccc21 [CoxFluor],measured rate for turnover relative to natural substrate cyclooxygenase activity,COX-2,≤ 100 fold
same,fluorescent turn-on response,"COX-2; CoxFluor 10 μM, COX-2 250 nM, hemin 1 μM, 4 h, room temperature, 100 mM Tris HCl pH 8.0",41 fold
same,COX-2-specific fluorescence enhancement in the presence of glutathione,"COX-2; glutathione 1 mM, COX-2 250 nM",maintained significant COX-2-specific fluorescence enhancements
same,maximum increase in COX-2 activity in lysates,[1]; 19 hr LPS activation,17.6 fold
same,increase in COX-2 activity in lysates,[1]; within the first 4 hr of LPS activation,2.4 fold
same,selectivity against tested enzymes,[2],good selectivity
same,stability in Tris-HCl and DMEM buffer systems,[3],stable

# — patent US12053533B2, “Fluorescent probe for cyclooxygenase-2” (The Board of Trustees of the University of Illinois, priority 2020, dated 2024)
